Reference: article PMC6934663, “Genomic and functional gene studies suggest a key role of beta-carotene oxygenase 1 like (bco1l) gene in salmon flesh color” (Scientific Reports, 2019)

Molecular target: T1, Bco1l (Salmo salar, UniProt A0A1S2X8G0)
T1 construct: the ssa11 copy is truncated), expressed in carotenoid-producing E. coli XL1-Blue, 528 aa
T1 sequence (A0A1S2X8G0 1-528): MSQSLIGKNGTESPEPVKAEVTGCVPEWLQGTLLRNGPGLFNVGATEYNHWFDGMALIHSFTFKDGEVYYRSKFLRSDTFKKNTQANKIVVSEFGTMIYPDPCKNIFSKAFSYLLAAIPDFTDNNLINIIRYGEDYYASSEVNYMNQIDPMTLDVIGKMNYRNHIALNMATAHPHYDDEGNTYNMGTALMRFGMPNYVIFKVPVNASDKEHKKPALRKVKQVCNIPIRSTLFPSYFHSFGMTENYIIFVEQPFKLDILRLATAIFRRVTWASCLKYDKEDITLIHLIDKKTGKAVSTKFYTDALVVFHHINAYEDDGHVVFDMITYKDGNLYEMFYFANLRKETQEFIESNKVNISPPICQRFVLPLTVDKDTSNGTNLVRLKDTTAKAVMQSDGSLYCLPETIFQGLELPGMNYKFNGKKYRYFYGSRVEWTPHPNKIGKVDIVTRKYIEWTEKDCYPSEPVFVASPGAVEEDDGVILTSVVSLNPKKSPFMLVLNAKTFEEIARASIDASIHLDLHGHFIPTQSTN
Test: HPLC of cleavage products in beta-carotene-producing E. coli
Type: cell-based
Details: E. coli co-expression, IPTG 0.2 mM, 16 h at 25 °C in darkness; 15,15' oxidative cleavage

SMILES: CC1=C(/C=C/C(C)=C/C=C/C(C)=C/C=C/C=C(C)/C=C/C=C(C)/C=C/C2=C(C)CCCC2(C)C)C(C)(C)CCC1 [beta-carotene]
- HPLC of cleavage products in beta-carotene-producing E. coli: The results showed that Bco1l cleaved beta-carotene (Fig. 6A).
